Source: patent publication US20140249097A1, “Inhibition of HIF-1 activation for Anti-Tumor and Anti-Inflammatory responses” (priority 2010, published 2014)
Structures can show the parent of a compound that is named as a salt.

What was measured:
HIF-1α [1] = test: HIF-1α ODD-luciferase reporter in normoxic 4T1ODD-luc cells; type: cell-based, mouse
Procedure: (§1) HIF-1α ODD-luciferase reporter activity was detected and quantified by the Xenogen IVIS bioluminescence imaging system (Xenogen Corporation, Alameda, Calif., United States of America) as previously described (Li et al., 2007). For in vitro imaging of cultured cells, 1×10^5 4 T1ODD-luc cells per well of 12-well plates were cultured with 2 ml culture medium for 24 hours. Then the cells were treated with doxorubicin hydrochloride (0.1, 1, or 10 μg/ml, Bedford Laboratories, Bedford, Ohio, United States of America) or an equal volume of control vehicle for 3 days under normoxic conditions (21% O2, 5% CO2). […] The activity of HIF-1α luciferase reporter was quantified daily. In animal studies, the bioluminescence of each tumor was detected on day 0 (before doxorubicin treatment) and on post-treatment days 1-7, 10, 13, and 16. During each imaging session mice were anesthetized with inhaled isoflurane and imaged 10 minutes after intraperitoneal (i.p.) injection of luciferin (150 mg/kg). Tumor bioluminescence intensity was normalized to the tumor volume at each time point.

HIF-1α [2] = test: Western blotting of HIF-1α in 4T1ODD-luc cells; type: cell-based, mouse; details: normoxic, total cell lysate and nuclear extraction, 48 hours post-treatment
Procedure: (§2) Cell nuclear proteins were extracted using the NucBuster protein extraction kit (Novagen, Gibbstown, N.J., United States of America). Total cell lysates or cell nuclear extractions were quantified using a protein assay reagent (Bio-Rad). Equal amounts of protein sample were separated by Bis-HCl gel (Bio-Rad) and transferred to a […] Immun-Blot PVDF membrane (Bio-Rad).

HIF-1α [3] = test: Western blotting of HIF-1α in MCF-7 cells; type: cell-based, human; details: normoxic MCF-7 cells
Procedure: as §2

HIF-1α [4] = test: Bioluminescent imaging of orthotopic 4T1ODD-luc tumors in nude mice; type: in vivo
Procedure: as §1
5×10^6 4 T1ODD-luc tumor cells in 200 μl PBS were injected orthotopically in the right thoracic mammary fat pad of female NCr/nu nude mice (Moeller et al., 2004). Tumor volumes were calculated as follows: volume=(length×width^2×π)/6. When tumor size reached 7 mm in diameter, animals were randomized into two groups: the control mice were injected with 100 μl saline and the treated mice were injected once with the maximal tolerated dose (MTD) of doxorubicin (10 mg/kg) via tail vein (Vanhoefer et al., 1997). Tumor volume and luciferase reporter activity in vivo were measured on days 0, 1-7, 10, 13 and 16.

HIF-1α [5] = test: Immunohistochemical staining of HIF-1α in orthotopic 4T1ODD-luc tumors; type: in vivo, mice; details: MTD doxorubicin vs saline, post-treatment days 1, 4, and 7
Procedure: (§3) Five mice from a doxorubicin-treated group or a control group that received saline were sacrificed on days 0, 1, 4, 7 and 16. The hypoxia marker pimonidazole (70 mg/kg i.p., NPI, Raleigh, N.C., United States of America) and the perfusion marker dye Hoechst 33342 (1 mg/mouse i.v., Sigma-Aldrich) were administered as previously described (Cao et al., 2005). Upon excision, tumors were snap-frozen in liquid nitrogen, stored at −80° C., and cut into 10 μm frozen sections. HIF-1α fluorescent staining was performed with anti-HIF-1α antibody (Novus). Direct pimonidazole labeling was performed using Hypoxyprobe (mouse monoclonal IgG1, NPI, Raleigh, N.C., United States of America) and Zenon Alexa Fluor 555 mouse IgG labeling kit (Invitrogen). Entire tumor sections were imaged by scanning fluorescent microscopy. Individual scanned images were then reconstructed into one composite image of the entire section by Metamorph. […] Eight random fields (10×) per frozen section were analyzed to determine the mean tumor vascular fraction as the percentage of vessel area in total tumor area in each field. Cell proliferation was determined by immunostaining with a rabbit polyclonal anti-Ki67 antibody (ab15580, 1:100 dilution, Abcam, Cambridge, Massachusettes, United States of America) and an Alexa 594-conjugated goat anti-rabbit IgG antibody (1:300 dilution, Invitrogen). […]

hypoxic tumor fraction = test: Pimonidazole staining of tumor hypoxia in orthotopic 4T1ODD-luc tumors; type: in vivo, mice; details: doxorubicin-treated vs control tumors
Procedure: as §3

perfused tumor fraction = test: Hoechst 33342 labeling of tumor perfusion in orthotopic 4T1ODD-luc tumors; type: in vivo, mice; details: doxorubicin-treated vs control tumors
Procedure: as §3

tumor vasculature = test: Fluorescent staining of tumor vasculature in orthotopic 4T1ODD-luc tumors; type: in vivo, mice
Procedure: Five mice from a doxorubicin-treated group or a control group that received saline were sacrificed on days 0, 1, 4, 7 and 16. The hypoxia marker pimonidazole (70 mg/kg i.p., NPI, Raleigh, N.C., United States of America) and the perfusion marker dye Hoechst 33342 (1 mg/mouse i.v., Sigma-Aldrich) were administered as previously described (Cao et al., 2005). Upon excision, tumors were snap-frozen in liquid nitrogen, stored at −80° C., and cut into 10 μm frozen sections. HIF-1α fluorescent staining was performed with anti-HIF-1α antibody (Novus). Direct pimonidazole labeling was performed using Hypoxyprobe (mouse monoclonal IgG1, NPI, Raleigh, N.C., United States of America) and Zenon Alexa Fluor 555 mouse IgG labeling kit (Invitrogen). Entire tumor sections were imaged by scanning fluorescent microscopy. Individual scanned images were then reconstructed into one composite image of the entire section by Metamorph. Tumor vasculature was stained by fluorescein-labeled Griffonia simplicifolia lectin I (isolectin B4) (1:200 dilution, Vector Laboratories, Burlingame, Calif., United States of America) as previously described (Cao et al., 2007). Eight random fields (10×) per frozen section were analyzed to determine the mean tumor vascular fraction as the percentage of vessel area in total tumor area in each field. Cell proliferation was determined by immunostaining with a rabbit polyclonal anti-Ki67 antibody (ab15580, 1:100 dilution, Abcam, Cambridge, Massachusettes, United States of America) and an Alexa 594-conjugated goat anti-rabbit IgG antibody (1:300 dilution, Invitrogen). Tumor activated macrophages were stained with rat anti-mouse CD68 antibody (1:100 dilution, Serotec, Raleigh, N.C., United States of America) and an Alexa 488-conjugated anti-rat IgG antibody (1:200 dilution, Invitrogen).

[6] = system: tumor-activated macrophages; test: CD68 staining of tumor-activated macrophages in orthotopic 4T1ODD-luc tumors; type: in vivo, mice; details: doxorubicin-treated vs saline-treated tumors
Procedure: as §3

VEGF = test: Mouse VEGF ELISA of 4T1ODD-luc conditioned medium; type: cell-based; details: normoxic, doxorubicin 0.1, 1, and 10 μg/ml
Procedure: 1×10^5 4 T1ODD-luc cells per well of 12-well plate were cultured with 1 ml cell culture medium overnight. The cells were treated with 0.1, 1, or 10 μg/ml of doxorubicin or without doxorubicin for 24, 48, and 72 hours. Secreted mouse VEGF in the conditioned medium at each time point was quantified by mouse VEGF ELISA kit (R & D Systems, Minneapolis, Minn., United States of America) and normalized to the number of living cells.

nitric oxide = test: Flow cytometry of intracellular nitric oxide (DAF-FM) in 4T1ODD-luc cells; type: cell-based, mouse; details: 1 μg/ml and 5 μg/ml doxorubicin, 48 hours, vs control
Procedure: To detect intracellular nitric oxide levels, 1×10^6 4 T1ODD-luc cells were plated per 10-cm cell culture dish with 8 ml of cell culture medium. Doxorubicin (1 μg/ml and 5 μg/ml) or an equal volume of control solvent was added into the cell culture medium the next day and treatment continued for 48 hours. […] Equal amounts of solvent were added for the control group. To quantify intracellular nitric oxide, a single cell suspension was made after trypsinization. 2 ml of 5 uM nitric oxide-specific probe DAF-FM diacetate (4-amino-5-methylamino-2′,7′-difluorofluorescein diacetate) (Invitrogen) were incubated with each cell sample at room temperature in darkness for 30 minutes. The cells were washed with PBS and centrifuged to remove the excess DAF-FM diacetate probe. The cells were resuspended into 500 ul of phenol-free DMEM and incubated for another 20 minutes for complete intracellular deacetylation of the probe. The mean fluorescence intensity of the deacetylated DAF-FM reacted with nitric oxide was quantified by FACSCalibur flow cytometer in FITC channel (Becton Dickinson, Franklin Lakes, N.J., United States of America).

iNOS [7] = test: Real-time PCR of iNOS mRNA in 4T1ODD-luc cells; type: cell-based, mouse; details: doxorubicin vs control treatment
Procedure: Total RNA was prepared using the miRVana extraction kit (Applied Biosystems, Austin, Tex., United States of America). 1 μg of total RNA was reverse transcribed into cDNA using the iScript cDNA synthesis kit (BioRad, Hercules, Calif., United States of America). Real-time PCR was performed on an ABI7900HT Fast Real-Time PCR System using Power SYBRGreen PCR Mix (Applied Biosystems). PCR products were verified by melting curves. The threshold cycle (CT) values for each gene were normalized to expression levels of β-actin. The primers used were as follows: mouse iNOS, forward 5′-[…]-3′ (SEQ ID NO: 22); reverse 5′-[…]-3′ (SEQ ID NO: 23); the same β-actin primers were used for both human and mouse cell lines, forward 5′-[…]-3′ (SEQ ID NO: 24); and reverse 5′-[…]-3′ (SEQ ID NO: 25).

iNOS [8] = test: Western blotting of iNOS in 4T1ODD-luc cells; type: cell-based, mouse
Procedure: as §2

STAT1 = test: Western blotting of STAT1 and phospho-STAT1 in 4T1ODD-luc cells; type: cell-based, mouse; details: doxorubicin 1 μg/ml
Procedure: as §2

**Q.** Which “HIF-1α reporter activity, comparison of concentrations” value (HIF-1α [1]; 1 μg/ml doxorubicin) does the source give for `COc1cccc2c1C(=O)c1c(O)c3c(c(O)c1C2=O)C[C@@](O)(C(=O)CO)C[C@@H]3O[C@H]1C[C@H](N)[C@H](O)[C@H](C)O1` [doxorubicin, doxorubicin hydrochloride] here?
**A.** most potent upregulation

**Q.** And the HIF-1α reporter activity (HIF-1α [1]; doxorubicin 0.1, 1, or 10 μg/ml, 48 hours post-treatment)?
**A.** significant increase in HIF-1α reporter activity

**Q.** And the HIF-1α protein expression (HIF-1α [2])?
**A.** enhanced

**Q.** And the HIF-1α protein (HIF-1α [3])?
**A.** led to normoxic HIF-1α accumulation

**Q.** And the “HIF-1α reporter activity in tumors on day 16” value (HIF-1α [4]; doxorubicin 10 mg/kg i.v. once vs saline, day 16)?
**A.** fell to a level similar to that in the control tumors

**Q.** What about the “HIF-1α reporter activity in tumors” value (HIF-1α [4]; doxorubicin 10 mg/kg i.v. once vs saline, from 3 days post-treatment) of the same compound?
**A.** significantly elevated the HIF-1α reporter activity

**Q.** What about the “peak in HIF-1 activation after doxorubicin treatment” value (HIF-1α [4]; in vivo) of the same compound?
**A.** 3 to 5 days

**Q.** And the “temporal course of doxorubicin-induced normoxic HIF-1α accumulation” value (HIF-1α [4]; mouse, in vivo)?
**A.** 3-5 days post-treatment

**Q.** What about the “tumor HIF-1α positive fraction” value (HIF-1α [5]) of the same compound?
**A.** significantly increased the HIF-1α fraction

**Q.** What about the “hypoxic tumor fraction (pimonidazole staining)” value (hypoxic tumor fraction) of the same compound?
**A.** no significant difference

**Q.** And the “perfused tumor fraction (Hoechst 33342 labeling)” value (perfused tumor fraction)?
**A.** no significant difference

**Q.** What about the “relative tumor vascular fraction” value (tumor vasculature; doxorubicin vs control, first 24 hours) of the same compound?
**A.** significant decrease in tumor vascular fraction

**Q.** What about the “tumor vessels by fluorescent staining” value (tumor vasculature; doxorubicin vs saline, day 4 post-treatment) of the same compound?
**A.** more tumor vessels

**Q.** And the “relative tumor vascular fraction” value (tumor vasculature; doxorubicin vs saline, day 16)?
**A.** still significantly higher compared to the saline-treated tumors

**Q.** And the “mean relative tumor vascular fraction” value (tumor vasculature; doxorubicin-treated tumors, post-treatment day 4 (peak))?
**A.** even higher than before chemotherapy treatment

**Q.** And the “fraction of tumor-activated macrophages (CD68)” value [6]?
**A.** no significant difference

**Q.** And the “secreted VEGF level” value (VEGF)?
**A.** significantly elevated the secreted VEGF level

**Q.** And the “intracellular NO levels” value (nitric oxide)?
**A.** increased intracellular NO levels

**Q.** And the “iNOS mRNA level” value (iNOS [7])?
**A.** significantly enhanced iNOS transcription

**Q.** And the iNOS expression (iNOS [8]; doxorubicin 1 μg/ml, normoxic conditions)?
**A.** stimulated iNOS expression

**Q.** And the iNOS expression (iNOS [8]; doxorubicin alone, first 24 hours post-treatment)?
**A.** initial decrease in iNOS expression

**Q.** What about the iNOS expression (iNOS [8]; doxorubicin, 48 hours post-treatment) of the same compound?
**A.** increase in iNOS expression

**Q.** What about the STAT1 expression (STAT1) of the same compound?
**A.** upregulated the expression of STAT1

**Q.** And the “STAT1 phosphorylation (Tyr701 and Ser727)” value (STAT1)?
**A.** promoted the activation of STAT1
